# Article PMC7926352, “Synthesis, Characterization and In Vitro Evaluation of Novel 5-Ene-thiazolo[3,2-b][1,2,4]triazole-6(5H)-ones as Possible Anticancer Agents” (Molecules, 2021)
# Where two headings read alike, the source gives them in different places.
# Columns and labels:
# A549/ATCC = type: cell-based; conditions: NSCLC; for CC50: read-out: LC50 (the source's name)
# [1] = test system: Ovarian Cancer cell lines
# [2] = test system: human embryonic kidney (HEK 293) cell lines; experiment: MTT cytotoxicity assay; type: cell-based; conditions: HEK 293, MTT, 24 h
# Method: Compounds 2h and 2i were also evaluated in vitro for their cytotoxic potential against human embryonic kidney (HEK 293) cell lines using the MTT assay.
# The cytotoxicity of compounds 2h and 2i was analyzed in vitro by the MTT colorimetric assay on human embryonic kidney cell lines (HEK 293). HEK cell lines were cultured in DMEM supplemented with 10% fetal calf serum and 1% antibiotic-antimycotic mixture culture plates at 37 °C and 5% CO2-humidified incubator. Cells were seeded at a density of 1 × 10^5 cells/well in 96-well plate for 24 h; then, cells were washed and incubated in fresh medium. Compounds 2h and 2i were added at a concentration of 1, 5, 10, 25, and 50 μg/mL to triplicate wells and kept for 24 h, after which cells were washed three times with PBS. After washing, 20 μL of MTT solution (5 mg/mL stock solution) were added to each well, and cells were then incubated for an additional 4 h. The unreacted MTT dye and medium were aspirated off, and 100 μL of DMSO was added to each well to ensure solubilization of formazan crystals. The contents of the plates were mixed for 15 min to achieve complete solubilization of the formazan crystals, and the measurement of optical density was carried out at 570 nm with a micro plate spectrophotometer (MRX Microplate Reader, Dynatech Laboratories Inc., Chantilly, VA, USA) at 570 nm.
# [3] = Homo sapiens, read-out: GI50, panel MG_MID
# [4] = Homo sapiens, read-out: GI50, values range inside panel
# [5] = Homo sapiens, read-out: LC50, panel MG_MID
# [6] = Homo sapiens, read-out: LC50, values range inside panel
compound,measurement,setting,value
"Ethyl(Z)-4-(3-(4-chloro-2-((6-oxothiazolo[3,2-b][1,2,4]triazol-5(6H)-ylidene)methyl)phenyl)propanamido)benzoate [Compound 2i]",GI50,EKVX; NSCLC,12.9 µM
same,TGI,EKVX; NSCLC,25.70 µM
same,GI50,"MALME-3M; MALME-3M, Melanoma",14.8 µM
same,TGI,"MALME-3M; MALME-3M, Melanoma",28.18 µM
same,GI50,"HOP-62; HOP-62, NSCLC",13.2 µM
same,TGI,"HOP-62; HOP-62, NSCLC",26.91 µM
same,GI50,"OVCAR-3; OVCAR-3, Ovarian Cancer",13.8 µM
same,TGI,"OVCAR-3; OVCAR-3, Ovarian Cancer",27.54 µM
same,GI50,"A498; A498, Renal Cancer",17.4 µM
same,TGI,"A498; A498, Renal Cancer",31.62 µM
same,GI50,"MCF7; MCF7, Breast Cancer",5.12 µM
same,TGI,"MCF7; MCF7, Breast Cancer",19.05 µM
same,GI50,"HOP-92; HOP-92, NSCLC",10.2 µM
same,TGI,"HOP-92; HOP-92, NSCLC",29.51 µM
same,GI50,"OVCAR-5; OVCAR-5, Ovarian Cancer",15.5 µM
same,TGI,"OVCAR-5; OVCAR-5, Ovarian Cancer",30.19 µM
same,"TGI, panel MG_MID",Renal Cancer cell lines; Renal Cancer subpanel,27.13 µM
same,"TGI, values range inside panel",Renal Cancer cell lines; Renal Cancer subpanel,21.37 to 31.62 µM
same,GI50,"Renal Cancer cell lines; read-out: GI50, panel MG_MID, Renal Cancer subpanel",13 µM
same,GI50,"Renal Cancer cell lines; read-out: GI50, values range inside panel, Renal Cancer subpanel",5.75 to 17.4 µM
same,CC50,"Renal Cancer cell lines; read-out: LC50, values range inside panel, Renal Cancer subpanel",51.3 to 58.9 µM
same,GI50,"SF-539; SF-539, CNS Cancer",12.6 µM
same,TGI,"SF-539; SF-539, CNS Cancer",25.11 µM
same,GI50,A549/ATCC,19.5 µM
same,TGI,A549/ATCC,39.81 µM
same,CC50,A549/ATCC,79.4 µM
same,GI50,"HT29; HT29, Colon cancer",12 µM
same,TGI,"HT29; HT29, Colon cancer",24.54 µM
same,GI50,"SF-268; SF-268, CNS Cancer",6.02 µM
same,TGI,"SF-268; SF-268, CNS Cancer",28.84 µM
same,GI50,"MDA-MB-435; MDA-MB-435, Breast Cancer",10.5 µM
same,TGI,"MDA-MB-435; MDA-MB-435, Breast Cancer",25.11 µM
same,GI50,"UACC-257; UACC-257, Melanoma",10.5 µM
same,TGI,"UACC-257; UACC-257, Melanoma",25.70 µM
same,"TGI, panel MG_MID",[1]; Ovarian Cancer subpanel,31.15 µM
same,"TGI, values range inside panel",[1]; Ovarian Cancer subpanel,20.89 to 38.90 µM
same,GI50,"[1]; read-out: GI50, panel MG_MID, Ovarian Cancer subpanel",13.7 µM
same,GI50,"SK-MEL-2; SK-MEL-2, Melanoma",14.5 µM
same,TGI,"SK-MEL-2; SK-MEL-2, Melanoma",33.11 µM
same,GI50,"MDA-MB-231/ATCC; MDA-MB-231/ATCC, Breast Cancer",12.3 µM
same,TGI,"MDA-MB-231/ATCC; MDA-MB-231/ATCC, Breast Cancer",26.91 µM
same,IC50,[2],24.4 µM
same,GI50,"TK-10; TK-10, Renal Cancer",16.2 µM
same,TGI,"TK-10; TK-10, Renal Cancer",29.51 µM
same,GI50,"CAKI-1; CAKI-1, Renal Cancer",10.5 µM
same,TGI,"CAKI-1; CAKI-1, Renal Cancer",23.98 µM
same,GI50,"SK-MEL-28; SK-MEL-28, Melanoma",12 µM
same,TGI,"SK-MEL-28; SK-MEL-28, Melanoma",23.98 µM
same,GI50,"OVCAR-4; OVCAR-4, Ovarian Cancer",12.9 µM
same,TGI,"OVCAR-4; OVCAR-4, Ovarian Cancer",38.90 µM
same,GI50,SN12C; Renal Cancer,12.6 µM
same,TGI,SN12C; Renal Cancer,25.11 µM
same,"TGI, panel MG_MID",Leukemia cell lines; Leukemia subpanel,51.55 µM
same,GI50,"Leukemia cell lines; read-out: GI50, panel MG_MID, Leukemia subpanel",11.3 µM
same,GI50,"Leukemia cell lines; read-out: GI50, values range inside panel, Leukemia subpanel",2.88 to 18.2 µM
"O=C(COc1ccc(Cl)cc1/C=c1\sc2ncnn2c1=O)Nc1ccc(Cl)cc1 [Compound 2h, (Z)-2-(4-Chloro-2-((6-oxothiazolo[3,2-b][1,2,4]triazol-5(6H)-ylidene)methyl)phenoxy)-N-(4-chlorophenyl)acetamide]",GI50,EKVX; Homo sapiens,2.51 µM
same,CC50,"EKVX; Homo sapiens, read-out: LC50",31.6 µM
same,TGI,EKVX; NSCLC,9.99 µM
same,GI50,"MALME-3M; Homo sapiens, Malme-3M",7.94 µM
same,CC50,"MALME-3M; Homo sapiens, Malme-3M, read-out: LC50",45.7 µM
same,TGI,"MALME-3M; MALME-3M, Melanoma",20.89 µM
same,TGI,"HOP-62; HOP-62, NSCLC",16.59 µM
same,GI50,"HOP-62; Homo sapiens, HOP-62",4.67 µM
same,CC50,"HOP-62; Homo sapiens, HOP-62, read-out: LC50",42.6 µM
same,GI50,"OVCAR-3; Homo sapiens, OVCAR-3",2.18 µM
same,CC50,"OVCAR-3; Homo sapiens, OVCAR-3, read-out: LC50",19.5 µM
same,TGI,"OVCAR-3; OVCAR-3, Ovarian Cancer",5.62 µM
same,TGI,"A498; A498, Renal Cancer",22.38 µM
same,GI50,"A498; Homo sapiens, A498",10.5 µM
same,CC50,"A498; Homo sapiens, A498, read-out: LC50",46.8 µM
same,GI50,"MCF7; Homo sapiens, MCF7",0.79 µM
same,CC50,"MCF7; Homo sapiens, MCF7, read-out: LC50",19.5 µM
same,TGI,"MCF7; MCF7, Breast Cancer",4.07 µM
same,TGI,"HOP-92; HOP-92, NSCLC",11.74 µM
same,GI50,"HOP-92; Homo sapiens, HOP-92",2.29 µM
same,CC50,"HOP-92; Homo sapiens, HOP-92, read-out: LC50",34.7 µM
same,GI50,"OVCAR-5; Homo sapiens, OVCAR-5",11.2 µM
same,CC50,"OVCAR-5; Homo sapiens, OVCAR-5, read-out: LC50",47.9 µM
same,TGI,"OVCAR-5; OVCAR-5, Ovarian Cancer",23.44 µM
same,GI50,Renal Cancer cell lines; [3],5.37 µM
same,GI50,Renal Cancer cell lines; [4],1.62 to 12.6 µM
same,CC50,Renal Cancer cell lines; [5],40.5 µM
same,CC50,Renal Cancer cell lines; [6],28.8 to 50.1 µM
same,"TGI, panel MG_MID",Renal Cancer cell lines; Renal Cancer subpanel,16.40 µM
same,"TGI, values range inside panel",Renal Cancer cell lines; Renal Cancer subpanel,8.12 to 25.11 µM
same,GI50,"SF-539; Homo sapiens, SF-539",1.77 µM
same,CC50,"SF-539; Homo sapiens, SF-539, read-out: LC50",12.6 µM
same,TGI,"SF-539; SF-539, CNS Cancer",4.46 µM
same,GI50,A549/ATCC; Homo sapiens,15.5 µM
same,CC50,A549/ATCC; Homo sapiens,60.2 µM
same,TGI,A549/ATCC,30.90 µM
same,TGI,"HT29; HT29, Colon cancer",15.13 µM
same,GI50,"HT29; Homo sapiens, HT-29",4.67 µM
same,CC50,"HT29; Homo sapiens, HT-29, read-out: LC50",38.9 µM
same,GI50,"SF-268; Homo sapiens, SF-268",2.39 µM
same,CC50,"SF-268; Homo sapiens, SF-268, read-out: LC50",37.1 µM
same,TGI,"SF-268; SF-268, CNS Cancer",10.47 µM
same,GI50,"MDA-MB-435; Homo sapiens, MDA-MB-435",2.95 µM
same,CC50,"MDA-MB-435; Homo sapiens, MDA-MB-435, read-out: LC50",28.8 µM
same,TGI,"MDA-MB-435; MDA-MB-435, Breast Cancer",12.58 µM
same,GI50,"UACC-257; Homo sapiens, UACC-257",3.38 µM
same,CC50,"UACC-257; Homo sapiens, UACC-257, read-out: LC50",38.9 µM
same,TGI,"UACC-257; UACC-257, Melanoma",15.13 µM
same,GI50,[1]; [3],8.05 µM
same,GI50,[1]; [4],2.11 to 15.5 µM
same,CC50,[1]; [5],52.1 µM
same,CC50,[1]; [6],19.5 to 97.7 µM
same,"TGI, panel MG_MID",[1]; Ovarian Cancer subpanel,20.34 µM
same,"TGI, values range inside panel",[1]; Ovarian Cancer subpanel,5.62 to 30.90 µM
same,GI50,"SK-MEL-2; Homo sapiens, SK-MEL-2",3.98 µM
same,CC50,"SK-MEL-2; Homo sapiens, SK-MEL-2, read-out: LC50",38.9 µM
same,TGI,"SK-MEL-2; SK-MEL-2, Melanoma",13.80 µM
same,GI50,"MDA-MB-231/ATCC; Homo sapiens, MDA-MB-231",< 0.01 µM
same,CC50,"MDA-MB-231/ATCC; Homo sapiens, MDA-MB-231, read-out: LC50",75.9 µM
same,TGI,"MDA-MB-231/ATCC; MDA-MB-231/ATCC, Breast Cancer",11.48 µM
same,IC50,"[2]; Homo sapiens, HEK293",29 µM
same,GI50,"TK-10; Homo sapiens, TK-10",7.58 µM
same,CC50,"TK-10; Homo sapiens, TK-10, read-out: LC50",35.5 µM
same,TGI,"TK-10; TK-10, Renal Cancer",20.41 µM
same,TGI,"CAKI-1; CAKI-1, Renal Cancer",8.12 µM
same,GI50,"CAKI-1; Homo sapiens, CAKI-1",2.39 µM
same,CC50,"CAKI-1; Homo sapiens, CAKI-1, read-out: LC50",28.8 µM
same,GI50,"SK-MEL-28; Homo sapiens, SK-MEL-28",6.16 µM
same,CC50,"SK-MEL-28; Homo sapiens, SK-MEL-28, read-out: LC50",51.3 µM
same,TGI,"SK-MEL-28; SK-MEL-28, Melanoma",20.41 µM
same,GI50,"OVCAR-4; Homo sapiens, OVCAR-4",8.91 µM
same,CC50,"OVCAR-4; Homo sapiens, OVCAR-4, read-out: LC50",97.7 µM
same,TGI,"OVCAR-4; OVCAR-4, Ovarian Cancer",30.90 µM
same,GI50,SN12C; Homo sapiens,1.62 µM
same,CC50,"SN12C; Homo sapiens, read-out: LC50",41.7 µM
same,TGI,SN12C; Renal Cancer,12.88 µM
same,GI50,Leukemia cell lines; [3],1.92 µM
same,GI50,Leukemia cell lines; [4],1.35 to 2.69 µM
same,CC50,Leukemia cell lines; [5],26.8 µM
same,CC50,Leukemia cell lines; [6],7.58 to 49 µM
same,"TGI, panel MG_MID",Leukemia cell lines; Leukemia subpanel,6.85 µM
same,"TGI, values range inside panel",Leukemia cell lines; Leukemia subpanel,3.16 to 14.45 µM
